The assay relates to human pluripotent stem cells (hPSC). Put plainly: Differentiation of human pluripotent stem cells (hPSC) into corneal endothelial cell (CEC)-like cells. It is filed as cell-based. As to conditions: for emergence of NCC markers: SB431542 and CHIR99021 as differentiation induction agents; for time at which NCC markers appeared: culture medium with about 10 μM SB431542 and about 4 μM CHIR99021 together. The method, then:
Embryonic (hESC) and induced pluripotent stem cells (iPSC) were used to generate CECs. Briefly, hPSCs were seeded on Laminin 521 (Biolamina) coated CellBind 6/12 well-plates (Corning) in 10 000-60 000 cell/cm 2 cell density. The cells were cultured in Essential 8 Flex medium (Thermo Fisher) for 24h. On day 1, Essential 8 flex medium was replaced with an induction medium supplemented with 10 μM SB431542 (Stemcell), 4 μM CHIR99021 (Stemcell) and 10 μM retinoic acid (RA, Sigma-Aldrich). Base of the induction medium consisted of KO-DMEM, 15% Knock-out serum replacement, 2 mM GlutaMax-I, 0.1 mM 2-mercaptoethanol (all from Thermo Fisher), 1% Non-essential Amino Acids, 50 U/ml Penicillin/Streptomycin. […] After day 9, CEC-like cells were formed, and harvested for analyses.
The hPSC-derived CECs were analyzed by immunocytochemistry. Briefly, the cells were fixed with 1 or 4% paraformaldehyde (PFA, Sigma-Aldrich) for 15 minutes. Next, the cells were permeabilized for 10 minutes with 0.1% Triton X-100 (Sigma-Aldrich) followed by blocking with 3% bovine serum albumin (BSA) for 1 hour. Then the cells were first incubated with 1:400 zona occludens-1 (ZO-1; Thermo Fisher), 1:200 alpha 1 sodium potassium ATPase (Na+/K+-ATPase, Abcam) and 1:400 CD166 (BD Biosciences) primary antibodies overnight at 4° C. The cells were next treated with 1:800 Donkey anti-Rabbit IgG Secondary Antibody, Alexa Fluor 488 (Thermo Fisher) against ZO-1; 1:800 Donkey anti-Mouse IgG Secondary Antibody, Alexa Fluor 568 (Thermo Fisher) against Na+/K+-ATPase and CD166; and 1:800 Donkey anti-Goat IgG Secondary Antibody, Alexa Fluor 568 (Thermo Fisher) against OCT-3/4. […] The images of mounted cells were captured using a fluorescence microscope (Olympus IX51; Olympus, Tokyo, Japan) and prepared using image editing software (Adobe Photoshop CC 2018; Adobe Systems) […]
Total RNA was extracted from undifferentiated hPSCs (d0), and from 3 time points during the time of hCEC induction (d3, d6 and d9) with Rneasy Minikit Plus (Qiagen). RNA concentration of each sample was determined using NanoDrop-1000 spectrophotometer (NanoDrop Technologies). […] The resulting cDNA samples were analyzed with qPCR using sequence-specific TaqMan Gene Expression Assays (Thermo Fisher) for OCT4 (Hs00999632_g1), PITX2 (Hs01553179_m1), AQP1 (Hs01028916_m1), SLC4A4 (Hs00186798_m1), and FOXC1 (Hs00559473_s1). […] Results were analyzed with the 7300 System SDS Software (Applied Biosystems) and Microsoft Excel. Based on the cycle threshold (CT) values given by the software, the relative quantification of each gene was calculated by applying the […] (Livak and Schmittgen, 2001). Results were normalized to GAPDH (Hs99999905_m1), with the undifferentiated hPSCs as the calibrator to determine the relative quantities of gene expression in each sample.

For `Cc1c[nH]c(-c2cnc(NCCNc3ccc(C#N)cn3)nc2-c2ccc(Cl)cc2Cl)n1` [CHIR99021], the “emergence of NCC markers” value was “contributed to emergence of NCC markers” and the “time at which NCC markers appeared” value was about 3 days.

As to `NC(=O)c1ccc(-c2nc(-c3ccc4c(c3)OCO4)c(-c3ccccn3)[nH]2)cc1` [SB431542, 4-[4-(1,3-Benzodioxol-5-yl)-5-(2-pyridinyl)-1H-imidazol-2-yl]-benzamide], the “emergence of NCC markers” value is “contributed to emergence of NCC markers” and the “time at which NCC markers appeared” value is about 3 days.
